According to US4474764A, “3-Amino-2-hydroxy-4-phenylbutanoic acid derivatives and pharmaceutical composition containing the same” (Zaidan Hojin Biseibutsu Kagaku Kenkyu Kai, priority 1981, dated 1984):

Legend:
[1] = tested on: morphine analgesia-non-effective Wistar rats; assay: Effect of enhancing morphine analgesia, tail-flick latency (Test 2); format: in vivo, rat; conditions: 250 mg/kg test compound i.p., 10 minutes later 0.5 mg/kg morphine i.p.; versus 0.5 mg/kg morphine alone; tail-flick latency
Description: Effect of enhancing morphine analgesia was tested.
To Wistar rats (10 week-age, male, body weight 250~300 g) was given intraperitoneally morphine at a dose of 0.5 mg/kg, and these rats receiving the morphine were classified into the group of morphine analgesia-effective rats and the group of morphine analgesia-non-effectiverats according to the classification method described in the "Showa Igakukai Zasshi" Vol. 39, No. 5, pages 537~542 (1979). […] The effect of analgesia was evaluated according to the method of tail-flick latency of rats described in the "Showa Igakukai Zasshi" Vol. 39, No. 5, pages 537~542 (1979). The evaluation of pain threshold of rats according to the tail-flick latency method was made as follows: Radiant heat stimulus was applied to the region of the rat tail which positioned 1 cm away from the tail tip and which had been colored black with a black-dye, and the time of latency involved in the tail flick, namely the period of time lapsing between the time of application of the heat stimulus and the time of the reflective flick response of the tail was measured. The quantity of the heat applied was so controlled that the average time of latency of the tail-flick response appearing in the control group of rats (receiving neither the test compound nor the morphine) was about 2.0 seconds. The tests were accomplished as long as the maximum value for the tail-flick latency was 7.0 seconds or less, as otherwise the skin of the rat tail could be damaged by the application of heat. In other words, if the time for the tail-flick latency was longer than 7.0 seconds, the tests were stopped to prevent the damage of the rat tail. The radiant heat stimulus was repeated 5 times for each test rat at an interval of 15 minutes and the times of latency in the flick response of the tail measured in each test were averaged. In each test, 5 rats were used.
The difference in the time of the tail-flick latency between the test rats (receiving 250 mg/kg of the test compound plus 0.5 mg/kg of morphine) and the control rats (receiving 0.5 mg/kg of morphine alone) was calculated, and the effect for enhancement of morphine analgesia was estimated in term of the value of percentages which were calculated by the following equation: [formula]

[2] = molecular target: T1, enkephalinase (Rattus norvegicus, UniProt P07861); assay: Inhibitory activity against enkephalinase (Test 1); format: biochemical; conditions: enkephalinase from corpus striatum of rat brain; substrate methionine-enkephaline; 37° C., 1 hour; pH 7.7
T1 construct: homogenizing corpus striatum of rat brain and by partial purification of the brain homogenate; from tissue; host or cells: rat brain corpus striatum, homogenate partially purified by the method of Gorenstein et al
T1 sequence (P07861 1-750): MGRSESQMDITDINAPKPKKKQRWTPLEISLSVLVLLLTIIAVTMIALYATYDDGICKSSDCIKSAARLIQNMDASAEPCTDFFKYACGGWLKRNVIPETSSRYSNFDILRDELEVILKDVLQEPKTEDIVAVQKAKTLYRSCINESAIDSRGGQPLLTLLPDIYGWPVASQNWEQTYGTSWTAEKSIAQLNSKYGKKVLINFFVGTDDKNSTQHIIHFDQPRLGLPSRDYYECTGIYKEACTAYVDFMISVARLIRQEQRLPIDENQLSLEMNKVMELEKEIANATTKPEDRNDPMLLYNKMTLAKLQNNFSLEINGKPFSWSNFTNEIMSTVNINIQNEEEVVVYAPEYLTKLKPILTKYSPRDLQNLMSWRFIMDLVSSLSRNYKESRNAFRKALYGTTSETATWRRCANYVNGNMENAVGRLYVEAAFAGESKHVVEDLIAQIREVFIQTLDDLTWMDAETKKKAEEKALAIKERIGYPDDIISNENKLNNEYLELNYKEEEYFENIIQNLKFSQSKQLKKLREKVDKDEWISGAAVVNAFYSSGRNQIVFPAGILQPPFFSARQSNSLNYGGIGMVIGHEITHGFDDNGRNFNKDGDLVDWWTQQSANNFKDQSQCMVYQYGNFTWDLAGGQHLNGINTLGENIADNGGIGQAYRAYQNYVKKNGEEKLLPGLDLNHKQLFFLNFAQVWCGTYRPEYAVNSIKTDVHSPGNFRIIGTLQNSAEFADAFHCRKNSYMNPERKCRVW
Description: Inhibitory activity against enkephalinase were tested.
A preparation of enkephalinase was made by homogenizing corpus striatum of rat brain and by partial purification of the brain homogenate according to the method of Gorenstein et al (see the "Life Science" Vol. 25, 2065~2070 (1979) Pergamon Press, U.S.A.).
A test compound was dissolved in a mixture of Trishydrochloride buffered solution (pH 7.7) and an aqueous 1% Triton X100 (an active surfectant) to such a concentration that the added quantity of the test compound amounted to one-tenth of the volume of said mixture. To the solution of the test compound so prepared was added the enkephalinase, followed by incubation for five minutes at ambient temperature and further by addition of methionine-enkephaline as the substrate. The admixture so obtained was incubated at 37° C. for 1 hour and then subjected to a high-performance liquid chromatography in such a manner that the Tyr-Gly-GLy (a fragment of the methionine-enkephaline) formed by the enzymatic degradation of methionine-enkephaline was isolated in some fractions of the eluate and the quantity of Tyr-Gly-GLy was determined by an electro-chemically analysing detector. In this way, IC50 value of the test compound, namely the dose of the test compound required for 50% inhibition of the enkephalinase was measured.

Structure (SMILES)	Morphine Analgesia enhancement [1] [%]	IC50 [2] [µM]
C[C@@H](NC=O)C(=O)N[C@H](Cc1ccccc1)[C@H](O)C(=O)[O-].[Na+] [Compound 15, (2S,3R)-3-N--(N'--formyl-(R)-alanyl)amino-2-hydroxy-4-phenylbutanoic acid sodium salt]	19.7	150
C[C@@H](N)C(=O)N[C@H](Cc1ccccc1)[C@H](O)C(=O)O [Compound 14, (2S,3R)-3-N--(R)-alanylamino-2-hydroxy-4-phenylbutanoic acid]	16.8	2140
N[C@@H](Cc1ccc(O)cc1)C(=O)NCC(=O)NCC(=O)N[C@@H](Cc1ccccc1)[C@@H](O)C(=O)O [Compound 16, (2R,3S)--3-N--(S)--tyrosylglycylglycylamino-2-hydroxy-4-phenylbutanoic acid]	15.2	440
CNCC(=O)N[C@H](Cc1ccccc1)[C@H](O)C(=O)O [Compound 7, (2S,3R)-3-N--(N'--methylglycyl)amino-2-hydroxy-4-phenylbutanoic acid]	16.2	
CC(C)C[C@@H](N)C(=O)N[C@H](Cc1ccccc1)[C@H](O)C(=O)O [Compound 9, (2S,3R)-3-N--(R)-leucylamino-2-hydroxy-4-phenylbutanoic acid]	26.3	2480
COC(=O)[C@@H](O)[C@@H](Cc1ccccc1)NC(=O)CNC(C)=O [Compound 3, (2S,3R)-3-N--(N'--acetylglycyl)amino-2-hydroxy-4-phenylbutanoic acid methyl ester]	22.9	5480
CC(=O)NCC(=O)NCC(=O)N[C@H](Cc1ccccc1)[C@H](O)C(=O)O [Compound 6, (2S,3R)-3-N--(N'--acetylglycylglycyl)amino-2-hydroxy-4-phenylbutanoic acid]	32.5	2450
NCC(=O)NCC(=O)N[C@H](Cc1ccccc1)[C@H](O)C(=O)O [Compound 4, (2S,3R)-3-N--glycylglycylamino-2-hydroxy-4-phenylbutanoic acid]	10.6	240
NCC(=O)N[C@H](Cc1ccccc1)[C@H](O)C(=O)O [Compound 1, (2S,3R)-3-N--glycylamino-2-hydroxy-4-phenylbutanoic acid]	25.7	2780
CC(C)C[C@H](N)C(=O)N[C@H](Cc1ccccc1)[C@H](O)C(=O)O [Compound 8, (2S,3R)-3-N--(S)--leucylamino-2-hydroxy-4-phenylbutanoic acid]	22.5	2560
N[C@H](Cc1ccccc1)C(=O)N[C@H](Cc1ccc(O)cc1)[C@H](O)C(=O)O [Compound 17, (2S,3R)-3-N--(R)-phenylalanylamino-2-hydroxy-4-p-hydroxy-phenylbutanoic acid]	32.1	130
NCC[C@H](O)C(=O)N[C@H](Cc1ccccc1)[C@H](O)C(=O)O [Compound 11, (2S,3R)-3-N--[4'-amino-(2'S)--2'-hydroxybutanoyl]amino-2-hydroxy-4-phenylbutanoic acid]	21.6	1280
N[C@H](Cc1ccccc1)[C@H](O)C(=O)N[C@H](Cc1ccccc1)[C@H](O)C(=O)O [Compound 12, (2S,3R)-3-N--[(2'S,3'R)-3'-amino-2'-hydroxy-4'-phenylbutanoyl]amino-2-hydroxy-4-phenylbutanoic acid]	15.7	> 20000
CC(C)C[C@@H](N)C(=O)N[C@H](Cc1ccccc1)[C@@H](O)C(=O)O [Compound 18, (2R,3R)-3-N--(R)-leucylamino-2-hydroxy-4-phenylbutanoic acid]	23.4	2650
COC(=O)[C@@H](O)[C@@H](Cc1ccccc1)NC(=O)CNC(=O)CN.Cl [Compound 5, (2S,3R)-3-N--glycylglycylamino-2-hydroxy-4-phenylbutanoic acid methyl ester hydrochloride]	19.0	1520
CC(C)C[C@H](NC(=O)[C@@H](O)[C@H](N)Cc1ccccc1)C(=O)O [Bestatin, (2S,3R)-3-amino-2-hydroxy-4-phenylbutanoyl-(S)-leucine, reference compound]	19.9	590
COC(=O)[C@@H](O)[C@@H](Cc1ccccc1)NC(=O)CN.Cl [Compound 2, (2S,3R)-3-N--glycylamino-2-hydroxy-4-phenylbutanoic acid methyl ester hydrochloride]	11.6	300
CC(=O)NCC(=O)NCC(=O)N[C@H](Cc1ccccc1)[C@H](O)C(=O)[O-].[Na+] [Compound 13, (2S,3R)-3-N--(N'--acetylglycylglycyl)amino-2-hydroxy-4-phenylbutanoic acid sodium salt]	33.1	
